Results as given in US9469615B2, “Quinoxalines and AZA-quinoxalines as CRTH2 receptor modulators” (Merck Sharp & Dohme Corp., priority 2010, dated 2016).

Target: T1, hCRTH2 (Homo sapiens, UniProt Q9Y5Y4)
T1 construct: expressed in transfected cells; host or cells: HEK (human embryonic kidney) cells expressing hCRTH2; membrane preparation
T1 sequence (Q9Y5Y4 1-395): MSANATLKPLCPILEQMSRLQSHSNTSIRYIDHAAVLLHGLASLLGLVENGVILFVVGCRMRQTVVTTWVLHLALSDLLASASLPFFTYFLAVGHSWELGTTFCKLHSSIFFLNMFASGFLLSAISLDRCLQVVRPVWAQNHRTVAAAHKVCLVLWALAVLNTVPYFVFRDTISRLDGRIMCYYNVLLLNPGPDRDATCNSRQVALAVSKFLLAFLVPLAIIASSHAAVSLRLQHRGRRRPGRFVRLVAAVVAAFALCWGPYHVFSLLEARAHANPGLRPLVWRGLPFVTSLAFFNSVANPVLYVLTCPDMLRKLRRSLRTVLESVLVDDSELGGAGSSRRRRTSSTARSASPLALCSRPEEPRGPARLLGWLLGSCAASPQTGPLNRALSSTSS
Assay: Radioligand binding assay ([3H]PGD2 competition, HEK-hCRTH2 membranes)
In short: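 Using membranes of an HEK line stably carrying hCRTH2, ligands were tested against [3H]PGD2 (3.0 nM) in pH 7.4 Tris buffer containing 2 mM MnCl2 and 1 mM EDTA. After one hour at room temperature, filters were washed cold and counted.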

SMILES | Ki ([3H]PGD2 competition, Table B) | Ki ([3H]PGD2 binding, values in text)
CCCCN(CCC)C(=O)c1ccc2nc(-c3ccc(Cl)cc3)c(CCCCC(=O)O)nc2c1 [compound 611, 5-(7-(butyl(propyl)carbamoyl)-3-(4-chlorophenyl)quinoxalin-2-yl)pentanoic acid] | 2.1 to 20 nM | –
O=C(O)CCCCc1nc2cc(C(=O)N[C@H]3CCOc4cc(F)ccc43)ccc2nc1-c1ccc(Cl)cc1 [compound 612, (S)-5-(3-(4-chlorophenyl)-7-((7-fluorochroman-4-yl)carbamoyl)quinoxalin-2-yl)pentanoic acid] | 0.1 to 2 nM | –
O=C(O)CCCCc1nc2cc(C(=O)N3CCO[C@@H](c4ccc(F)cc4)C3)ccc2nc1-c1ccc(Cl)cc1 [compound 613, (S)-5-(3-(4-chlorophenyl)-7-(2-(4-fluorophenyl)morpholine-4-carbonyl)quinoxalin-2-yl)pentanoic acid] | 20.1 to 200 nM | –
O=C(O)CCCCc1nc2cc(C(=O)N3CCO[C@H](c4ccc(F)cc4)C3)ccc2nc1-c1ccc(Cl)cc1 [compound 614, (R)-5-(3-(4-chlorophenyl)-7-(2-(4-fluorophenyl)morpholine-4-carbonyl)quinoxalin-2-yl)pentanoic acid] | 2.1 to 20 nM | –
O=C(O)CCCCc1nc2cc(C(=O)N3CCO[C@@H](c4ccc(C(F)(F)F)cc4)C3)ccc2nc1-c1ccc(Cl)cc1 [compound 615, (S)-5-(3-(4-chlorophenyl)-7-(2-(4-(trifluoromethyl)phenyl)morpholine-4-carbonyl)quinoxalin-2-yl)pentanoic acid] | 2.1 to 20 nM | –
O=C(O)CCCCc1nc2cc(C(=O)N3CCO[C@H](c4ccc(C(F)(F)F)cc4)C3)ccc2nc1-c1ccc(Cl)cc1 [compound 616, (R)-5-(3-(4-chlorophenyl)-7-(2-(4-(trifluoromethyl)phenyl)morpholine-4-carbonyl)quinoxalin-2-yl)pentanoic acid] | 20.1 to 200 nM | –
O=C(O)CCCCc1nc2cc(C(=O)N[C@@H]3CCCc4ccncc43)ccc2nc1-c1ccc(Cl)cc1 [compound 617] | 0.1 to 2 nM | –
O=C(O)CCCCc1nc2cc(C(=O)N[C@H]3CCCc4ccncc43)ccc2nc1-c1ccc(Cl)cc1 [compound 618, (S)-5-(3-(4-chlorophenyl)-7-((5,6,7,8-tetrahydroisoquinolin-8-yl)carbamoyl)quinoxalin-2-yl)pentanoic acid] | 0.1 to 2 nM | –
Cc1ccccc1N1CCN(C(=O)c2ccc3nc(-c4ccc(Cl)cc4)c(CCCCC(=O)O)nc3c2)CC1 [compound 619, 5-(3-(4-chlorophenyl)-7-(4-(o-tolyl)piperazine-1-carbonyl)quinoxalin-2-yl)pentanoic acid] | 0.1 to 2 nM | –
Cc1cccc(N2CCN(C(=O)c3ccc4nc(-c5ccc(Cl)cc5)c(CCCCC(=O)O)nc4c3)CC2)c1 [compound 620, 5-(3-(4-chlorophenyl)-7-(4-(m-tolyl)piperazine-1-carbonyl)quinoxalin-2-yl)pentanoic acid] | 0.1 to 2 nM | –
Cc1ccc(N2CCN(C(=O)c3ccc4nc(-c5ccc(Cl)cc5)c(CCCCC(=O)O)nc4c3)CC2)cc1C [compound 621, 5-(3-(4-chlorophenyl)-7-(4-(3,4-dimethylphenyl)piperazine-1-carbonyl)quinoxalin-2-yl)pentanoic acid] | 0.1 to 2 nM | –
COc1ccc(N2CCN(C(=O)c3ccc4nc(-c5ccc(Cl)cc5)c(CCCCC(=O)O)nc4c3)CC2)cc1 [compound 622, 5-(3-(4-chlorophenyl)-7-(4-(4-methoxyphenyl)piperazine-1-carbonyl)quinoxalin-2-yl)pentanoic acid] | 2.1 to 20 nM | –
N#Cc1ccc(N2CCN(C(=O)c3ccc4nc(-c5ccc(Cl)cc5)c(CCCCC(=O)O)nc4c3)CC2)cc1 [compound 623, 5-(3-(4-chlorophenyl)-7-(4-(4-cyanophenyl)piperazine-1-carbonyl)quinoxalin-2-yl)pentanoic acid] | 2.1 to 20 nM | –
O=C(O)CCCCc1nc2cc(C(=O)N3CCN(c4ccc(Cl)c(Cl)c4)CC3)ccc2nc1-c1ccc(Cl)cc1 [compound 624, 5-(3-(4-chlorophenyl)-7-(4-(3,4-dichlorophenyl)piperazine-1-carbonyl)quinoxalin-2-yl)pentanoic acid] | 0.1 to 2 nM | –
CN(Cc1cccnc1)C(=O)c1ccc2nc(-c3ccc(Cl)cc3)c(CCCCC(=O)O)nc2c1 [compound 625, 5-(3-(4-chlorophenyl)-7-(methyl(pyridin-3-ylmethyl)carbamoyl)quinoxalin-2-yl)pentanoic acid] | 2.1 to 20 nM | –
O=C(O)CCCCc1nc2cc(C(=O)N3CCC(n4c(=O)[nH]c5ccccc54)CC3)ccc2nc1-c1ccc(Cl)cc1 [compound 626, 5-(3-(4-chlorophenyl)-7-(4-(2-oxo-2,3-dihydro-1H-benzo[d]imidazol-1-yl)piperidine-1-carbonyl)quinoxalin-2-yl)pentanoic acid] | 2.1 to 20 nM | –

SMILES | Ki ([3H]PGD2 competition, Table B) | Ki ([3H]PGD2 binding, values in text)
Cc1cccc(N2CCN(C(=O)c3ccc4nc(-c5ccc(Cl)cc5)c(CCCCC(=O)O)nc4c3)CC2)c1C [compound 627, 5-(3-(4-chlorophenyl)-7-(4-(2,3-dimethylphenyl)piperazine-1-carbonyl)quinoxalin-2-yl)pentanoic acid] | 0.1 to 2 nM | –
Cc1cccc(C)c1N1CCN(C(=O)c2ccc3nc(-c4ccc(Cl)cc4)c(CCCCC(=O)O)nc3c2)CC1 [compound 628, 5-(3-(4-chlorophenyl)-7-(4-(2,6-dimethylphenyl)piperazine-1-carbonyl)quinoxalin-2-yl)pentanoic acid] | 0.1 to 2 nM | –
Cc1ccc(C)c(N2CCN(C(=O)c3ccc4nc(-c5ccc(Cl)cc5)c(CCCCC(=O)O)nc4c3)CC2)c1 [compound 629, 5-(3-(4-chlorophenyl)-7-(4-(2,5-dimethylphenyl)piperazine-l-carbonyl)quinoxalin-2-yl)pentanoic acid] | 0.1 to 2 nM | –
O=C(O)CCCCc1nc2cc(C(=O)N3C[C@@H]4C[C@H]3CN4Cc3ccccc3)ccc2nc1-c1ccc(Cl)cc1 [compound 630] | 2.1 to 20 nM | –
N#Cc1ccccc1N1CCN(C(=O)c2ccc3nc(-c4ccc(Cl)cc4)c(CCCCC(=O)O)nc3c2)CC1 [compound 631, 5-(3-(4-chlorophenyl)-7-(4-(2-cyanophenyl)piperazine-1-carbonyl)quinoxalin-2-yl)pentanoic acid] | 0.1 to 2 nM | –
COc1ccccc1C1CCN(C(=O)c2ccc3nc(-c4ccc(Cl)cc4)c(CCCCC(=O)O)nc3c2)CC1 [compound 632, 5-(3-(4-chlorophenyl)-7-(4-(2-methoxyphenyl)piperidine-1-carbonyl)quinoxalin-2-yl)pentanoic acid] | 0.1 to 2 nM | –
O=C(O)CCCCc1nc2cc(C(=O)N3CCC4(CC3)OCc3ccccc34)ccc2nc1-c1ccc(Cl)cc1 [compound 633, 5-(3-(4-chlorophenyl)-7-(3H-spiro[isobenzofuran-1,4′-piperidin]-1′-ylcarbonyl)quinoxalin-2-yl)pentanoic acid] | 0.1 to 2 nM | –
O=C(O)CCCCc1nc2cc(C(=O)N3CCC4(CC3)CCN(c3ccccc3)C4=O)ccc2nc1-c1ccc(Cl)cc1 [compound 634, 5-(3-(4-chlorophenyl)-7-(1-oxo-2-phenyl-2,8-diazaspiro[4.5]decane-8-carbonyl)quinoxalin-2-yl)pentanoic acid] | 2.1 to 20 nM | –
O=C(O)CCCCc1nc2cc(C(=O)N3CCN(c4cccc(Cl)c4Cl)CC3)ccc2nc1-c1ccc(Cl)cc1 [compound 635, 5-(3-(4-chlorophenyl)-7-(4-(2,3-dichlorophenyl)piperazine-1-carbonyl)quinoxalin-2-yl)pentanoic acid] | 0.1 to 2 nM | –
Cc1ccc(N2CCN(C(=O)c3ccc4nc(-c5ccc(Cl)cc5)c(CCCCC(=O)O)nc4c3)CC2)c(C)c1 [compound 636, 5-(3-(4-chlorophenyl)-7-(4-(2,4-dimethylphenyl)piperazine-1-carbonyl)quinoxa1in-2-yl)pentanoic acid] | 0.1 to 2 nM | –
C[C@H](NC(=O)c1ccc2nc(-c3ccccc3)c(CCCCC(=O)O)nc2c1)c1cncc2ccccc12 [compound 637, (S)-5-(7-((1-(isoquinolin-4-yl)ethyl)carbamoyl)-3-phenylquinoxalin-2-yl)pentanoic acid] | 2.1 to 20 nM | 4.2 nM
C[C@@H](NC(=O)c1ccc2nc(-c3ccccc3)c(CCCCC(=O)O)nc2c1)c1cncc2ccccc12 [compound 638, (R)-5-(7-((1-(isoquinolin-4-yl)ethyl)carbamoyl)-3-phenylquinoxalin-2-yl)pentanoic acid] | 201 to 700 nM | –
C[C@@H](NC(=O)c1ccc2nc(-c3ccccc3)c(CCCCC(=O)O)nc2c1)c1cccc2ncccc12 [compound 639, (R)-5-(3-phenyl-7-((1-(quinolin-5-yl)ethyl)carbamoyl)quinoxalin-2-yl)pentanoic acid] | 20.1 to 200 nM | –
C[C@H](NC(=O)c1ccc2nc(-c3ccccc3)c(CCCCC(=O)O)nc2c1)c1cccc2ncccc12 [compound 640, (S)-5-(3-phenyl-7-((1-(quinolin-5-yl)ethyl)carbamoyl)quinoxalin-2-yl)pentanoic acid] | 2.1 to 20 nM | –
O=C(O)CCCCc1nc2cc(C(=O)N[C@@H]3CCOc4ccc(F)cc43)ccc2nc1-c1ccccc1 [compound 641, (R)-5-(7-((6-fluoro-chroman-4-yl)carbamoyl)-3-phenylquinoxalin-2-yl)pentanoic acid] | 2.1 to 20 nM | –
O=C(O)CCCCc1nc2cc(C(=O)N[C@@H]3CCOc4cc(F)c(F)cc43)ccc2nc1-c1ccccc1 [compound 642, (R)-5-(7-((6,7-difluorochroman-4-yl)carbamoyl)-3-phenylquinoxalin-2-yl)pentanoic acid] | 2.1 to 20 nM | –
